Data reported in patent publication US5569742A (The Salk Institute for Biological Studies, priority 1994, dated 1996).
Positions of bridges follow the written chain, without caps; N, C: chain ends. Residues, ends and D or L forms follow the SMILES beside them.

Assays:
NPY Y1 receptor = target: T1, NPY Y1 receptor (Homo sapiens, UniProt P25929); experiment: Receptor binding assay, displacement of [125I]PYY from SK-N-MC cells
T1 construct: The human SK-N-MC cell line expresses the Y1 receptor subtype; endogenous in cells; host or cells: SK-N-MC human neuroblastoma cells (intact, plated cells)
T1 sequence (P25929 1-384): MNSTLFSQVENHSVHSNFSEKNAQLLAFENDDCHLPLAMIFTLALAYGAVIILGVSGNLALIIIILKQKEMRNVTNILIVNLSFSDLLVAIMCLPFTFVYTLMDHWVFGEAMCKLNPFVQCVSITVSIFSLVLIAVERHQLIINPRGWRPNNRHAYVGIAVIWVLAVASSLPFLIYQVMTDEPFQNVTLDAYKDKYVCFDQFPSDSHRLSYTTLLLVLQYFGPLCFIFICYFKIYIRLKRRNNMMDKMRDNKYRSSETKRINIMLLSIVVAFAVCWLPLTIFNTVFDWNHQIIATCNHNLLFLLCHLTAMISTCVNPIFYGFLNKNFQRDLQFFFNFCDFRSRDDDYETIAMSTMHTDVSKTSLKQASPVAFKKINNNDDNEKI
Method: (§1) Receptor binding assays are performed using the human neuroblastoma SK-N-MC cells Y1 receptors) and the SK-N-BE(2) cells (Y2 receptors). Cells are grown to confluence in […], trypsinized, and plated into 24 microwells plates (10^5 cells per well). Media for SK-N-MC cells is MEM Eagles (500 mL) buffer, containing L-glutamine (10 Ml, 200 mM, penicillin/streptomycin (5 Ml.10 000 mg/mL), nonessential amino acids (5 mL, 11 mg/mL), fetal calf serum (50 mL, 10%), and 500 μL of fungiyorl. Media for SK-N-BE(2) cells is DME-F12 (500 mL) buffer, containing L-glutamine (10 mL, 200 mM), penicillin/streptomycin (5 mL, 10 000 mg/mL), fetal calf serum (50 mL, 10%), and 500 μL of fungiyorl. After 1 day for the SK-N-BE(2) and 2 days for the SK-N-MC, the cells are grown to the appropriate density and are used for binding assays
(§2) Peptides to be tested are prealiquoted at 100 μg/Ml in 100 μL of solution in MILLI-Q™ water (Millipore, U.S.A.). Solutions of peptides in different concentrations (seven doses from 10^-6 to 10^-10 M) are prepared in binding buffer (0.30M sucrose, 10 mM HEPES, 0.1% BSA, and pH is adjusted to 7.4 with NaOH).

NPY Y2 receptor = target: T2, NPY Y2 receptor (Homo sapiens, UniProt P49146); experiment: Receptor binding assay, displacement of [125I]PYY from SK-N-BE2 cells
T2 construct: Functional Y2 receptors have been identified on the cell line SK-N-BE2; endogenous in cells; host or cells: SK-N-BE(2) human neuroblastoma cells (intact, plated cells)
T2 sequence (P49146 1-381): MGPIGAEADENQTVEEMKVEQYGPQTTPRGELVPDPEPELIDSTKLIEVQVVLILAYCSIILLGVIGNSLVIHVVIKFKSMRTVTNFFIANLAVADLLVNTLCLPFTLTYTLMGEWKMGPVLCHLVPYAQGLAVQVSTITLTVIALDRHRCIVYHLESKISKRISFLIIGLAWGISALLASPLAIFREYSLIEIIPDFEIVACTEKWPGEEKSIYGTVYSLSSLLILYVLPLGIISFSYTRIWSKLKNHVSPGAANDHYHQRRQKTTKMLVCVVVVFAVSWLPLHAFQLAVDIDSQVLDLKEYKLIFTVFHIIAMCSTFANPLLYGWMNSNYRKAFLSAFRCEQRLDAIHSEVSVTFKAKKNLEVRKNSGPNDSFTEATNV
Method: as §1, §2

Ki (NPY Y1 receptor): 32 nM | Ki (NPY Y2 receptor): > 1000 nM
Structure (SMILES): CC[C@H](C)[C@H](NC(=O)[C@H](Cc1ccc(O)cc1)NC(=O)[C@H](Cc1c[nH]cn1)NC(=O)[C@H](CCCNC(=N)N)NC(=O)[C@H](CC(C)C)NC(=O)[C@H](C)NC(=O)[C@H](CO)NC(=O)[C@@H]1CSSC[C@H](NC(=O)[C@H](CC(=O)O)NC(=O)[C@@H]2CCCN2C(=O)[C@H](CCCCN)NC(=O)[C@H](CO)NC(=O)[C@@H]2CCCN2C(=O)[C@@H](N)Cc2ccc(O)cc2)C(=O)N2CCC[C@H]2C(=O)NCC(=O)N1)C(=O)N[C@@H](CC(N)=O)C(=O)N[C@@H](CC(C)C)C(=O)N[C@H](C(=O)N[C@H](C(=O)N[C@@H](CCCNC(=N)N)C(=O)N1CCC[C@H]1C(=O)N[C@@H](CCCNC(=N)N)C(=O)N[C@@H](Cc1ccc(O)cc1)C(N)=O)[C@@H](C)O)[C@@H](C)CC [SEQ ID NO:8] (H-YPSKPDCPGCSALRHYINLITRPRY-NH2; disulfide 7-10)
